From patent publication US11116757B2 (priority 2015, dated 2021)

biological target: DCN1-UBC12 interaction (Homo sapiens (Human), UniProt Q96GG9); experiment: biochemical; format: binding; settings: TR-FRET IC50
Sequence (Q96GG9 60-248 limits assumed): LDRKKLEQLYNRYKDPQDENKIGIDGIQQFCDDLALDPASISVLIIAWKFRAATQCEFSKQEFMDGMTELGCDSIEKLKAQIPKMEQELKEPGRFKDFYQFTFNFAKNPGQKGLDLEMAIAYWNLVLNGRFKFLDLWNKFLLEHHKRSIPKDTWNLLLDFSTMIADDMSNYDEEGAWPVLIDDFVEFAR

Compound	IC50
COc1ccccc1CN1CCC(N(Cc2ccccc2)C(=O)Nc2cc(F)cc(C(F)(F)F)c2)CC1 [A224]	> 25.3 µM
CCCC(C)N1CCC(N(Cc2ccccc2)C(=O)Nc2cccc(C(C)C)c2)CC1 (stereo not drawn) [A33]	0.2 µM

same assay, conditions: Table 4, commercial compounds; read-out: TR-FRET IC50

Compound	IC50
O=C(Nc1ccc(I)cc1)C1CCN(C(=O)c2ccco2)CC1 [C30]	> 67.6 µM
COc1ccc(Cl)cc1NC(=O)C1CCN(C(=O)c2ccccc2F)CC1 [C42]	> 67.6 µM
COc1ccc(C(=O)N2CCC(C(=O)Nc3cccc([N+](=O)[O-])c3)CC2)c2ccccc12 [C60]	> 67.6 µM
Cc1cc(C)n(-c2ccc(NC(=O)C3CCN(C(=O)CC(F)(F)F)CC3)cc2)n1 [C34]	> 67.6 µM
CC1CN(C(=O)N2CCC(C(=O)Nc3cccc(Cl)c3)CC2)c2ccccc2O1 (stereo not drawn) [C51]	> 67.6 µM
COc1ccc(C(=O)N2CCC(C(=O)Nc3ccccc3C)CC2)c2ccccc12 [C62]	> 67.6 µM
COCC(=O)N1CCC(C(=O)Nc2ccc(-c3cc4ccccc4[nH]3)cc2)CC1 [C46]	> 67.6 µM
O=C(Nc1ccc(Cl)c(C(F)(F)F)c1)C1CCN(C(=O)c2ccc(Br)cc2)CC1 [C29]	> 67.6 µM
COc1ccc(OC)c(NC(=O)C2CCN(C(C)=O)CC2)c1 [C33]	> 67.6 µM

same assay, conditions: Table 6, commercial compounds; read-out: TR-FRET IC50

Compound	IC50
CCN(CC)CCN(C)C(=O)c1cnn(-c2nccc(-c3cccs3)n2)c1C(C)C [E15]	32.1 µM
CCN(CC)CCN(C)C(=O)c1cnn(-c2ncc(C)c(-c3cccs3)n2)c1COC [E38]	> 67.6 µM
CCN1CCN(C(=O)c2cnn(-c3ncc(C)c(-c4cccs4)n3)c2COC)CC1 [E20]	48.2 µM
Cc1c(C(=O)N2CCN(C)CC2)cnn1-c1nccc(-c2cccs2)n1 [E49]	> 67.6 µM
CCOc1ccccc1N1CCN(C(=O)c2cnn(-c3nccc(-c4ccco4)n3)c2C)CC1 [E10]	25 µM
COCCN(C)C(=O)c1cnn(-c2nccc(-c3cccs3)n2)c1C [E52]	> 67.6 µM
COCCN1CCN(C(=O)c2cnn(-c3nccc(-c4cccs4)n3)c2C(C)C)CC1 [E17]	34.4 µM
COCCN1CCN(C(=O)c2cnn(-c3ncc(C)c(-c4cccs4)n3)c2C)CC1 [E32]	> 67.6 µM
CCCN1CCN(C(=O)c2cnn(-c3nccc(-c4cccs4)n3)c2C)CC1 [E60]	> 68 µM
CC(C)N1CCN(C(=O)c2cnn(-c3nccc(-c4cccs4)n3)c2C2CC2)CC1 [E43]	> 67.6 µM
CCCN1CCN(C(=O)c2cnn(-c3ncc(C)c(-c4cccs4)n3)c2COC)CC1 [E11]	26 µM
CCN(CC)C(=O)c1cnn(-c2nccc(-c3cccs3)n2)c1C1CC1 [E61]	> 71.6 µM
COCCN(C(=O)c1cnn(-c2nccc(-c3cccs3)n2)c1C)C(C)C [E45]	> 67.6 µM
CCN(CC)CCN(CC)C(=O)c1cnn(-c2ncc(C)c(-c3cccs3)n2)c1C1CC1 [E18]	38.1 µM

same assay, conditions: Table 7, commercial compounds; read-out: TR-FRET IC50

Compound	IC50
CCOc1ccc(C2c3c(C)nn(C)c3NC(=O)C2NC(=O)c2cccc(C)c2)cc1OC (stereo not drawn) [F18]	> 67.6 µM

same assay, conditions: read-out: TR-FRET IC50

Compound	IC50
CN(C)c1ncncc1NC(=O)NC1CCN(Cc2ccc(F)cc2)CC1 [B109]	> 72.8 µM
CCCC(C)N1CCC(N(Cc2ccccc2)C(=O)Nc2cccc([N+](=O)[O-])c2C)CC1 (stereo not drawn) [A161]	7.94 µM
CCCC(C)N1CCC(N(Cc2ccccc2)C(=O)Nc2ccc3c(c2)OC(F)(F)O3)CC1 (stereo not drawn) [A52]	0.281 µM
CCCCN1CCC(N(Cc2ccccc2)C(=O)Nc2cccc(Cl)c2)CC1 [A60]	0.357 µM
O=C(Nc1cccc(C(F)(F)F)c1)NC1CCN(Cc2ccccc2Cl)CC1 [A292, 1-(1-(2-Chlorobenzyl)Piperidin-4-yl)-3-(3-(Trifluoromethyl)Phenyl)Urea]	> 77.3 µM
CCCC(C)N1CCC(N(Cc2ccccc2)C(=O)Nc2cccc(Cc3ccccc3)c2)CC1 (stereo not drawn) [A23]	0.14 µM
CCN1CCC(N(Cc2ccco2)C(=O)Nc2ccc(Br)c(C)c2)CC1 [B2]	3 µM
CCCCN1CCC(N(Cc2ccccc2)C(=O)Nc2cc(F)cc(C(F)(F)F)c2)CC1 [A45]	0.256 µM
O=C(Nc1ccccc1Cl)NC1CCN(Cc2ccccc2)CC1 [B55]	> 67.6 µM
CCCC(C)N1CCC(N(Cc2ccccc2)C(=O)Nc2ccc(O)cc2)CC1 (stereo not drawn) [A308]	> 98.6 µM
O=C(Nc1cc(F)cc(C(F)(F)F)c1)N(Cc1ccccc1)C1CCN(Cc2ccncc2)CC1 [A228]	> 28.3 µM
O=C(Nc1cccc(C(F)(F)F)c1)N(Cc1ccccc1)C1CCNCC1 [A261, 1-Benzyl-1-(Piperidin-4-yl)-3-(3-(Trifluoromethyl)Phenyl)Urea]	> 63.3 µM
C=CS(=O)(=O)NCc1ccccc1CN(C(=O)Nc1cccc(C(F)(F)F)c1)C1CCN(C(C)CCC)CC1 (stereo not drawn) [A2]	0.0068 µM
C#CCCCN1CCC(N(Cc2ccccc2NC(=O)C=C)C(=O)Nc2cccc(C(F)(F)F)c2)CC1 [A119]	0.353 µM
CC(=O)N1CCC(N(Cc2ccc(C)o2)C(=O)Nc2cc(Cl)ccc2Cl)CC1 [B89]	> 67.6 µM
CCCC(C)N1CCC(N(Cc2ccccc2NC(=O)CCl)C(=O)Nc2cccc(C(F)(F)F)c2)CC1 (stereo not drawn) [drawing 843]	0.208 µM
CCN1CCC(N(Cc2ccc3c(c2)OCO3)C(=O)Nc2cccc(Br)c2)CC1 [B4]	4.06 µM
Cc1ccc(CN2CCC(N(Cc3ccccc3)C(=O)Nc3cc(F)cc(C(F)(F)F)c3)CC2)s1 [A227]	> 27 µM
CCCCN1CCC(N(Cc2ccccc2)C(=O)Nc2cc(C(F)(F)F)cc(C(F)(F)F)c2)CC1 [A274]	> 68.2 µM
COc1cccc(NC(=O)NC2CCN(C(C)C)CC2)c1 [B60]	> 67.6 µM
O=C(Nc1ccccc1C(F)(F)F)NC1CCN(Cc2ccccc2)CC1 [B103]	> 70.7 µM

Compound	IC50
CCCC(C)N1CCC(N(Cc2ccccc2)C(=O)Nc2ccc(C(=O)OC)cc2Cl)CC1 (stereo not drawn) [A189]	37.8 µM
O=C(Nc1cccnc1Cl)NC1CCN(C(=O)c2ccccc2F)CC1 [B30]	> 53.3 µM
CCCC(C)N1CCC(N(Cc2ccccc2)C(=O)Nc2ccc(O)cc2C)CC1 (stereo not drawn) [A115]	2.36 µM
O=C(CN1CCN(c2ccccc2)CC1)Nc1cccc(C(F)(F)F)c1 [B37]	> 60.6 µM
CCCC(C)N1CCC(N(Cc2ccccc2)C(=O)Nc2cccc(S(F)(F)(F)(F)F)c2)CC1 (stereo not drawn) [A25]	0.155 µM
CCCC(C)N1CCC(N(Cc2ccccc2)C(=O)Nc2ccc(C3CCCCC3)cc2)CC1 (stereo not drawn) [A110]	2.21 µM
CCCC(C)N1CCC(N(Cc2cccc(CNC(=O)CCl)c2)C(=O)Nc2cccc(C(F)(F)F)c2)CC1 (stereo not drawn) [A256]	> 60.4 µM
CCCCN(C(=O)Nc1ccc(Cl)c(Cl)c1)C1CCN(C(C)CCC)CC1 (stereo not drawn) [A20]	0.116 µM
1-(1-((1H-Imidazol-4-yl)Methyl)Piperidin-4-yl)-1-Benzyl-3-(3-(Trifluoromethyl)Phenyl)Urea [A184]	29 µM
CCCC(C)N1CCC(N(Cc2ccccc2)C(=O)Nc2cc(C)ccc2F)CC1 (stereo not drawn) [A181]	19.8 µM
Cc1ccccc1CN1CCC(NC(=O)Nc2cccc(C(F)(F)F)c2)CC1 [A135]	3.35 µM
CCCC(C)N1CCC(N(Cc2ccccc2)C(=O)Nc2ccc3cn[nH]c3c2)CC1 (stereo not drawn) [A108]	2.11 µM
CCCCN1CCC(N(Cc2ccccc2)C(=O)Nc2ccc(C)s2)CC1 [A182]	21.1 µM
CCCC(C)N1CCC(N(Cc2cccnc2)C(=O)Nc2cc(F)cc(C(F)(F)F)c2)CC1 (stereo not drawn) [A39]	0.213 µM
CC1CN(Cc2ccccc2)CC(C)C1NC(=O)Nc1nccs1 (stereo not drawn) [B9]	18.6 µM
CCCC(C)N1CCC(N(Cc2ccccc2)C(=O)Nc2ccc(F)c(S(F)(F)(F)(F)F)c2)CC1 (stereo not drawn) [A54]	0.295 µM
O=C(c1ccccc1Br)N1CCC(c2nc3ccccc3s2)CC1 [D8]	19.8 µM
COc1ccccc1NC(=O)N(Cc1ccco1)C1CCN(C(C)=O)CC1 [B68]	> 67.6 µM
CCCC(C)N1CCC(N(Cc2ccccc2)C(=O)Nc2cc(OC)cc(OC)c2)CC1 (stereo not drawn) [A273]	> 68 µM
CCCC(C)N1CCC(N(Cc2ccccc2)C(=O)Nc2ccc(Cl)cc2F)CC1 (stereo not drawn) [A91]	1.19 µM
CCCC(C)N1CCC(N(Cc2ccccc2)C(=O)Nc2cccc(C(=O)OC)c2)CC1 (stereo not drawn) [A81]	0.88 µM

Compound	IC50
O=C(Nc1ccc(CN2CCCC2)cc1)Nc1cccc(C(F)(F)F)c1 [B105]	> 71.3 µM
C=CS(=O)(=O)NCCCN(C(=O)Nc1cccc(C(F)(F)F)c1)C1CCN(C(C)CCC)CC1 (stereo not drawn) [A220]	> 24.5 µM
1-Benzyl-1-(1-(Pentan-2-yl)Piperidin-4-yl)-3-(3-(Trifluoromethyl)Phenyl)Urea [A293]	> 78.2 µM
CCCCN1CCC(C(Cc2ccccc2)C(=O)Nc2cccc(C(F)(F)F)c2)CC1 (stereo not drawn) [A156]	7.11 µM
COc1ccccc1NC(=O)N(CCCN1CCC(C)CC1)C1CCN(C(C)=O)CC1 [B96]	> 67.6 µM
CCCC(C)N1CCC(N(Cc2ccccc2)C(=O)Nc2ccc(C)nc2Br)CC1 (stereo not drawn) [A240]	> 51.7 µM
CCCCN1CCC(N(Cc2ccccc2)C(=O)Nc2cccc(C(F)(F)F)c2F)CC1 [A70]	0.583 µM
CCCC(C)N1CCC(N(Cc2ccccc2)C(=O)Nc2cccc(OC)c2)CC1 (stereo not drawn) [A131]	3.15 µM
C=CC(=O)NCc1cccc(CN(C(=O)Nc2cccc(C(F)(F)F)c2)C2CCN(C(C)CCC)CC2)c1 (stereo not drawn) [drawing 845]	0.018 µM
CCCC(C)N1CCC(N(Cc2ccccc2)C(=O)Nc2ccc(Cl)c(F)c2)CC1 (stereo not drawn) [A49]	0.265 µM
CCCN1CCC(N(Cc2cc(F)cc(C(F)(F)F)c2)C(=O)Nc2cccc(C(F)(F)F)c2)CC1 [A68, 1-(3-Fluoro-5-(Trifluoromethyl)Benzyl)-1-(1-Propylpiperidin-4-yl)-3-(3-(Trifluoromethyl)Phenyl)Urea]	0.488 µM
CCOc1ccc(C(=O)NCC(=O)N2CCC(c3nc4ccccc4s3)CC2)cc1 [D33]	> 67.6 µM
O=C(c1ccc(F)cc1Cl)N1CCC(c2nc3ccccc3s2)CC1 [D5]	18.2 µM
CCCC(C)N1CCC(N(Cc2ccccc2)C(=O)Nc2cc(Cl)ccc2Cl)CC1 (stereo not drawn) [A152]	6.27 µM
CCCC(C)N1CCC(N(Cc2ccccc2)C(=O)Nc2cc(C(F)(F)F)ccc2Cl)CC1 (stereo not drawn) [A101]	1.6 µM
CCOc1ccccc1NC(=O)N(Cc1ccc(C)o1)C1CCN(C(C)=O)CC1 [B88]	> 67.6 µM
CCCC(C)N1CCC(N(Cc2ccccc2)C(=O)Nc2ccc(C)c(C)c2)CC1 (stereo not drawn) [A31]	0.184 µM
O=C(Nc1ccc(C(=O)N2CCCC2)cc1)Nc1cccc(C(F)(F)F)c1 [B112]	> 73.5 µM
CCC(CC)N1CCC(N(Cc2ccccc2)C(=O)Nc2cc(F)cc(C(F)(F)F)c2)CC1 [A120]	0.616 µM
